According to ChEMBL document CHEMBL3608252, “Dietziamides, novel tetramic acid dimers from Dietzia timorensis MZ-3 with antioxidative activity” (Bioorg Med Chem Lett, 2015):
Active and inactive are the calls of the source. The calls are words filed in the database; no cut-off is given here.

Assays:
[1] = system: P388; experiment: Cytotoxicity against mouse P388 cells at 0.78 to 100 uM after 4 days by MTT assay; format: functional, cell-based
[2] = system: Saccharomyces cerevisiae; experiment: Antimicrobial activity against Saccharomyces cerevisiae assessed as growth inhibition at 1.25 to 10 ug/disk incubated for 1 to 2 days by disk diffusion assay; format: functional, organism-based
[3] = system: Candida albicans; experiment: Antimicrobial activity against Candida albicans assessed as growth inhibition at 1.25 to 10 ug/disk incubated for 1 to 2 days by disk diffusion assay; format: functional, organism-based
[4] = Antioxidant activity assessed as DPPH redical scavenging activity incubated for 2 hrs in dark condition; format: physicochemical
[5] = system: Bacillus subtilis; experiment: Antimicrobial activity against Bacillus subtilis assessed as growth inhibition at 1.25 to 10 ug/disk incubated for 1 to 2 days by disk diffusion assay; format: functional, organism-based

| SMILES | Activity [1] | growth inhibition (GI) [2] | growth inhibition (GI) [3] | IC50 [4] | growth inhibition (GI) [5] |
| --- | --- | --- | --- | --- | --- |
| C/C=C1\NC(=O)C(C(C2=C(O)/C(=C/C)NC2=O)[C@H](O)CO)=C1O (stereo partly specified) | inactive | inactive | inactive | 37 µM | inactive |
| O=C1O[C@H]([C@@H](O)CO)C(O)=C1O [ASCORBIC ACID] |  |  |  | 13 µM |  |
| C/C=C1\NC(=O)C(CC2=C(O)/C(=C/C)NC2=O)=C1O | inactive | inactive | inactive | 34 µM | inactive |
